Holding throughout (type): biochemical
Assay [1] deals with T1, ACE (Rattus norvegicus, UniProt P47820).
T1 construct: membrane fraction prepared from rat lung; from tissue; host or cells: rat lung, membrane fraction (method of Wu-Wong et al.)
T1 sequence (P47820 36-1313): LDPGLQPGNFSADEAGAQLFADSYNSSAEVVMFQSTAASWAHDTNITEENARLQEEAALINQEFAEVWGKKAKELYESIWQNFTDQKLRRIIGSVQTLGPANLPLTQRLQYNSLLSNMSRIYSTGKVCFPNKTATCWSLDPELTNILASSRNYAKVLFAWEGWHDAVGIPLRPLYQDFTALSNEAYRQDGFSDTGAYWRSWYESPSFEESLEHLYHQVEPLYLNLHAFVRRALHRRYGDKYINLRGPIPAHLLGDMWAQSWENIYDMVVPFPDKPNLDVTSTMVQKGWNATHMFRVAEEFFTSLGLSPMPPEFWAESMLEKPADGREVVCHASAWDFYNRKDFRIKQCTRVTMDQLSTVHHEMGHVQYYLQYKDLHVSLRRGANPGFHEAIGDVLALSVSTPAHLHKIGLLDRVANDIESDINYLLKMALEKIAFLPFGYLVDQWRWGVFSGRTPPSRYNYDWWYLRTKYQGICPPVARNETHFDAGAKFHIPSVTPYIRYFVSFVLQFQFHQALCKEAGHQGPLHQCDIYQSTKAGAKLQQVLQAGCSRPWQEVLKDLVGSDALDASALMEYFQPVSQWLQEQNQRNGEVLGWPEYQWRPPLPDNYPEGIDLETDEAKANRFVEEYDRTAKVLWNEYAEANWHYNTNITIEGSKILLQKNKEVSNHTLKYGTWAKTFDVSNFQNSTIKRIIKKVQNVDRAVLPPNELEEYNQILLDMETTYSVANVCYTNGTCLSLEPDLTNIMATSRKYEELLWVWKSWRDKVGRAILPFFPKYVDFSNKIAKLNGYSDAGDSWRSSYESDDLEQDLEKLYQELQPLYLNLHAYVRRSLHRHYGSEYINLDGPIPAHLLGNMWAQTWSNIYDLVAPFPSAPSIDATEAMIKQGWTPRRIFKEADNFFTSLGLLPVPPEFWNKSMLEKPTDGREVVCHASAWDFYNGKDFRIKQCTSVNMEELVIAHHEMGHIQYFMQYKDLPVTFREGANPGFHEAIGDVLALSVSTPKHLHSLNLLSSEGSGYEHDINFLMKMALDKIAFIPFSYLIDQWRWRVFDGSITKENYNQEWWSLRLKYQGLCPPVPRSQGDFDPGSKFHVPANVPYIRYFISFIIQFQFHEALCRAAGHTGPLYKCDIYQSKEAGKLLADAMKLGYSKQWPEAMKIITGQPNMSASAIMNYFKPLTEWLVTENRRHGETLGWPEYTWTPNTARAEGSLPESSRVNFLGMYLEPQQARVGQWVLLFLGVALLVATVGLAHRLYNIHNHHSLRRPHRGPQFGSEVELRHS
Put plainly: ACE inhibition activity using rat lung (Experiment A-2). Conditions: rat lung membrane fraction, borate buffer pH 8.3. How it is done:
The ACE inhibition activity was determined by using a membrane fraction prepared from rat lung in accordance with the method of Wu-Wong et al. (Characterization of Endthelin Converting Enzyme in Rat Lung., Junshyum R. Wu-Wong, Gerald, P. Budzik, Edward M. Devine and Terry J. Opgenorth, Biochem. Biophys. Res. Commun., 1990, 171, 1291-1296.).
The ACE activity was determined with the use of a modification (modified to a borate buffer, pH 8.3) of the method of Cushman and Cheung (Spectrophotometric Assay and Properties of the Angiotensin-Converting Enzyme of Rabbit Lung., Cushman, D. W. and Cheung H. S., 1971, 20, 1637-1648.).
(§1) In the presence of ACE, the hippurate liberated from hippuryl-histidyl-leucine (Hippuryl-His-Leu (PeptideInstitute Inc., Japan)) was extracted with ethyl acetate and then the absorbance was measured at a wavelength of 228 nm.
With respect to the ACE inhibition activity, the inhibitor was added to the experimental system as described above in such a manner as to give the final concentrations of 1, 3, 10, 30, 100, 300 and 1000 nM, an inhibition curve was prepared, and then the concentration at which 50% inhibition was achieved was taken as IC50.

The target of assay [2] is T2, NEP (Rattus norvegicus, UniProt P07861).
T2 sequence (P07861 1-750): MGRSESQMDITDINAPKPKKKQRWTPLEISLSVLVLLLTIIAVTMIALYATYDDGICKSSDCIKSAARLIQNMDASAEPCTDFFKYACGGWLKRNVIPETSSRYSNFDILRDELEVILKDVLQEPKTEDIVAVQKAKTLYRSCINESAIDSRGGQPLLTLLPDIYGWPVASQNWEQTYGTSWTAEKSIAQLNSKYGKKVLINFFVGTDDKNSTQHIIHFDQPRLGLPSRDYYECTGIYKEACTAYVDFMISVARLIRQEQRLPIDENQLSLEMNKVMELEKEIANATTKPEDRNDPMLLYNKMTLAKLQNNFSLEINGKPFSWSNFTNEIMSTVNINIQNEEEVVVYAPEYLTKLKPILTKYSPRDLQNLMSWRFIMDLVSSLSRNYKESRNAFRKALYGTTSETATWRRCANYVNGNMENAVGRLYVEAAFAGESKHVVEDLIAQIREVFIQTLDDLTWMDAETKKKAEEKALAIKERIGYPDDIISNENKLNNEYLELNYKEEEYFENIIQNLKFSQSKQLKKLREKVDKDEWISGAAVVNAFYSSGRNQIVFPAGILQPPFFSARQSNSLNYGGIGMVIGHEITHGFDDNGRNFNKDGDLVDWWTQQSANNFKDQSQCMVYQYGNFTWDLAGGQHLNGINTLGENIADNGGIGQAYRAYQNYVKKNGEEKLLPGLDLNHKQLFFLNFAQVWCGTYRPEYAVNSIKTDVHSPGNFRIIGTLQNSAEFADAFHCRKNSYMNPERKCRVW
The experiment in a line: NEP inhibition activity using rat renal cortex (Experiment A-1). Also noted: membrane fraction prepared from rat renal cortex; from tissue; host or cells: rat renal cortex, membrane fraction (method of Booth and Kenny). Conditions: rat renal cortex membrane fraction. How it is done:
The NEP activity was determined by using a membrane fraction prepared from rat renal cortex in accordance with the method of Booth and Kenny (A Rapid Metod for the Purificaton of Microvilli from Rabbit Kidney., Andrew G. Booth and A. John Kenny, Biochem j., 1974, 142, […].).
The NEP activity was determined by the following manner in accordance with the method of Orlowsky and Wilk (Purification and Specificity of a Membrane-Bound Metalloendopeptidase from Bovine Pituitaries., Marian Orlowsky and Shrwin Wilk, Biochemistry, 1981, 20, 4942-4950.).
(§2) As a substrate, benzoyl-glycyl-arginyl-arginyl-2-naphthylamide (benzoyl-Gly-Arg-Arg-2-naphthylamide (Nova Biochem, Switzerland)) was used. In the presence of an NEP enzyme preparation and excessive leucine aminopeptidase (sigma chemical Co., U.S.A.), the liberated naphthylamine was made to undergo color development with first garnet (Sigma chemical Co., U.S.A.), followed by the measurement of the absorbance at a wavelength of 540 nm.
With respect to the NEP inhibition activity, the inhibitor was added to the experimental system as described above in such a manner as to give the final concentrations of 1, 3, 10, 30, 100, 300 and 1000 nM, an inhibition curve was prepared, and then the concentration at which 50% inhibition was achieved was taken as IC50.

The target of assay [3] is T1, ACE. Put plainly: ACE inhibition activity using rat lung (Experiment C-2). Conditions: Table C-1; rat lung membrane fraction, borate buffer pH 8.3. The protocol: The ACE inhibition activity was determined by using a membrane fraction prepared from rat lung in accordance with the method of Wu-Wong et al. (Characterization of Endthelin Converting Enzyme in Rat Lung., Junshyum R. Wu-Wong, Gerald P. Budzik, Edward M. Devine and Terry J. Opgenorth, Biochem. Biophys. Res. Commun., 1990, 171, 1291-1296.).
The ACE activity was determined with the use of a modification (modified to a borate buffer, pH 8.3) of the method of Cushman and Cheung (Spectrophotometric Assay and Properties of the Angiotensin-Converting Enzyme of Rabbit Lung., Cushman D. W. and Cheung H. S., 1971, 20, 1637-1648.).
as §1
With respect to the ACE inhibition activity, the test compound was added to the reaction system as described above in such a manner as to give the final concentrations of 1, 3, 10, 30, 100, 300 and 1000 nM, an inhibition curve was prepared, and then the concentration at which 50% inhibition was achieved was taken as IC50. As a comparative compound, [4S-[4α,7α(R*),12bβ]]-7-[(1-oxo-2-(S)-thio-3-phenyl-propyl)amino]-1,2,3,4,6,7,8,12b-octahydro-6-oxopyrido-[2,1-a][2]benzazepine-4-carboxylic acid was used.

Assay [4] has as its target T2, NEP. The experiment in a line: NEP inhibition activity (Experiment C-1). Conditions: Table C-1. How it is done:
The NEP activity was determined by the following manner in accordance with the method of Orlowsky and Wilk (Purification and Specificity of a Membrane-Bound Metalloendpeptidase from Bovine Pituitaries., Marian Orlowsky and Shrwin Wilk, Biochemistry, 1981, 20, 4942-4950.).
as §2
With respect to the NEP inhibition activity, the test compound was added to the experimental system as described above in such a manner as to give the final concentrations of 1, 3, 10, 30, 100, 300 and 1000 nM, an inhibition curve was prepared, and then the concentration at which 50% inhibition was achieved was taken as IC50. As a comparative compound, [4S-[4α,7α(R*),12bβ]]-7-[(1-oxo-2-(S)-thio-3-phenyl-propyl)amino]-1,2,3,4,6,7,8,12b-octahydro-6-oxopyrido-[2,1-a][2]benzazepine-4-carboxylic acid was used.

The target of assay [5] is T1, ACE. Put plainly: ACE inhibition activity (Experiment E-1). Conditions: rat lung membrane fraction, pH 8.3. How it is done:
As a source of the enzyme ACE, a membrane fraction prepared from rat lung in accordance with the method of Wu-Wong et al. (Characterization of Endthelin Converting Enzyme in Rat Lung., Jinshyum R. Wu-Wong, Gerald, P. Budzik, Edward M. Devine and Terry J. Opgenorth, Biochem. Biophys. Res. Commun., 1990, 171, 1291-1296.) was used. The ACE activity was determined with the use of a modification (modified to a borate buffer pH 8.3) of the method of Cushman and Cheung (Spectrophotometric Assay and Properties of the Angiotensin-Converting Enzyme of Rabbit Lung., Cushman D. W. and Cheung H. S., 1971, 20, 1637-1648.). Now the procedure will be briefly described.
as §1
(§3) To determine the NEP inhibition activity and the ACE inhibition activity, the inhibitor was added to the assay systems of both enzyme activities as described above in such a manner as to give the final concentrations of 1, 3, 10, 30, 100, […] and 1000 nM and inhibition curves were prepared. Then the concentration at which 50% inhibition was achieved was taken as IC50.

Assay [6] has as its target T2, NEP. Put plainly: NEP inhibition activity (Experiment E-1). Conditions: rat renal cortex membrane fraction. The arrangement: membrane fraction prepared from rat renal cortex; from tissue; host or cells: rat renal cortex, membrane fraction (method of Booth and Kenny). How it is done: As a source of the enzyme NEP, a membrane fraction prepared from rat renal cortex in accordance with the method of Booth and Kenny (A Rapid Method for the Purification of Microvilli from Rabbit Kidney., Andrew G. Booth and A. John Kenny, Biochem. j., 1974, 142,575-581.) was employed. The NEP activity was determined in accordance with the method of Orlowsky and Wilk (Purification and Specificity of a Membrane-Bound Metalloendpeptidase from Bovine Pituitaries., Marian Orlowsky and Shrwin Wilk, Biochemistry, 1981, 20, 4942-4950.). Now the procedure will be briefly described.
As a substrate, benzoyl-glycyl-arginyl-arginyl-2-naphthylamide (benzoyl-Gly-Arg-Arg-2 naphthylamide (Nova Biochem, Switzerland)) was used. In the presence of an NEP enzyme preparation and excessive leucine aminopeptidase (sigma chemical Co., U.S.A.), the liberated naphthylamine was made to undergo color development with first garnet (Sigma chemical Co., U.S.A.), followed by the measurement of the absorbance at a wavelength of 540 nm.
as §3

Consider `O=C(O)CN1C(=O)C(NC(=O)[C@@H](S)Cc2ccccc2)CCc2ccc(-c3ccccc3)cc21` (stereo partly drawn) [Example A-3, 1-Carboxymethyl-3-[(S)-2-mercapto-3-phenylpropionylamino]-8-phenyl-1H-[1]benzazepin-2-one], for which the IC50 is 50 nM against ACE [1] and 90 nM on NEP [2].

With `CC(C)[C@H](S)C(=O)NC1CCc2ccc(-c3ccccc3)cc2N(CC(=O)O)C1=O` (stereo partly shown) [Example A-5], the IC50 on ACE [1] worked out at 50 nM; against NEP [2], 160 nM.

Turning to `O=C(O)CN1C(=O)C(NC(=O)[C@@H](S)Cc2ccccc2)CCc2ccccc21` (stereo partly drawn) [Example A-7, 1-Carboxymethyl-3-[(S)-2-mercapto-3-phenylpropionylamino]1H-[1]benzazepin-2-one], the results for the IC50 against ACE [1] and on NEP [2] were 10 nM and 8.2 nM, respectively.

Regarding `CC[C@H](C)[C@H](S)C(=O)N[C@H]1Cc2ccc(NS(C)(=O)=O)cc2[C@H]2CCC[C@@H](C(=O)O)N2C1=O` [Example C-15, [4S-[4α,7α(R*),12bβ]]-11-Methylsulfonylamino-7-[[(2S,3S)-3-methyl-1-oxo-2-thiopentyl]amino]-6-oxo-1,2,3,4,6,7,8,12b-octahydropyrido[2,1-a][2]benzazepine-4-carboxylic acid], the IC50 was determined as 12.5 nM on ACE [3] and 6.6 nM against NEP [4].

`COc1ccc(C[C@H](S)C(=O)N[C@H]2Cc3ccc(-c4ccccc4)cc3[C@H]3CCC[C@@H](C(=O)O)N3C2=O)cc1` [Example E-7, [4S-[4α,7α(R*),12bβ]]-7-[(S)-2-Mercapto-3-(4-methoxyphenyl)propionylamino]-6-oxo-11-phenyl-1,2,3,4,6,7,8,12b-octahydropyrido[2.1-a][2]benzazepine-4-carboxylic acid]: the results for the IC50 on ACE [5] and at NEP [6] were 11 nM and 45 nM, respectively.

As a reminder, the IC50 is the point on the concentration scale where inhibition reaches its midpoint.

Source of the values: US5679671A, “Amino acid derivative” (Eisai Co., Ltd., priority 1993, dated 1997).
